From article PMC7689250, “Synthetic Peptide Libraries Designed From a Minimal Alpha-Helical Domain of AS-48-Bacteriocin Homologs Exhibit Potent Antibacterial Activity” (Frontiers in Microbiology, 2020) come the findings set out here.

Data set [1] deals with E. coli strain BL21. Put plainly: Propidium iodide uptake by FACS. In kind it is cell-based, Escherichia coli. The following applies: 2, 4, 8, 16 or 32 μM peptide in saline, 1 h, ambient temperature, 1 × 10^4 events. The protocol: For determination of bacterial cell death via membrane disruption, bacterial cells were subjected to propidium iodide (PI) uptake and quantified using fluorescence-activated cell sorting (FACS). E. coli strain BL21 were first diluted to a OD 600 of 1.0. Cells were washed three times in 0.85% NaCl (saline) solution and resuspended in either 1.5 mL of either saline, 70% isopropyl alcohol, or peptide diluted to either 2, 4, 8, 16 or 32 μM in saline for 1 h at ambient temperature. Following incubation, cells were pelleted and resuspended in 1 mL of saline with 1.5 μL/mL propidium iodide and incubated in the dark for 15 min. The samples were washed again with saline three times and run through a Beckman Coulter FC500 flow cytometer. The FL3 detector, using the propidium iodine PE-Alexa Fluor 610 emission filter, was used to sort the cells. 1 × 10^4 events were collected for each sample run.

Data set [2] concerns S. pyogenes (M1). In kind it is cell-based, Streptococcus pyogenes. The following applies: for MBC: M1. The gist of the method:
(§1)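 MIC in Mueller-Hinton broth with 1 × 10^6 CFU/mL bacteria, overnight cultures grown first in LB (E. coli, P. aeruginosa, S. aureus) or Todd-Hewitt (S. pyogenes); growth read as OD 600. Library members screened at half the parent peptide MIC; MBC as lowest concentration giving no colonies after plating MIC wells, 37°C overnight.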

Data set [3] relates to S. aureus (USA300). In kind it is cell-based, Staphylococcus aureus. The following applies: for MBC: USA300; for MIC: USA300, 16 h. The gist of the method:
as §1

The subject of data set [4] is E. coli (BL21). In kind it is cell-based, Escherichia coli. The essentials:
as §1

The subject of data set [5] is GFP-expressing E. coli strain BL21. Put plainly: Live imaging of GFP leakage. Type of data set: cell-based, Escherichia coli. The following applies: 16 μM peptide, 8 h, 37°C, images every 10 min. The protocol: To observe bacterial cell death in the presence of peptide in real time, fluorescence microscopy was employed using GFP-expressing E. coli strain BL21. MIC assays were conducted against BL21-GFP to determine the peptide concentration used for microscopy experiments. The peptide was suspended in PBS and added to diluted bacterial cells. GFP-expressing E. coli in the presence of peptide were imaged on the Eclipse Ti-E inverted microscope (Nikon) using GFP and DIC channels for 8 h at 37°C, with images taken every 10 min ([Fields et al., 2020]). Syn-xiamencin-2, a peptide with no detectable antimicrobial activity below 128 μM was also evaluated as a negative peptide candidate control.

Data set [6] deals with P. aeruginosa (PAO1). In kind it is cell-based, Pseudomonas aeruginosa. The following applies: for MBC: PAO1; for MIC: PAO1, 16 h. The essentials: as §1
Data set [7] has as its system sheep erythrocytes. Type of data set: cell-based. The following applies: red cells of sheep, 1 h. The essentials: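 Washed defibrinated sheep blood, diluted 1:25 in PBS, incubated 1 h at 37 °C with peptide at the MIC-assay concentrations (sample:blood 1:10). Haemoglobin release read as supernatant absorbance at 450 nm; percent haemolysis normalised to PBS and 10% Triton controls.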

Data set [8] deals with human keratinocyte cell line (HaCaT). Nature of the data set: HaCaT cytotoxicity, ethidium homodimer assay. Type of data set: cell-based. The note with it: 16 h, 37°C, DMEM + 10% FBS, normalised to saponin, triplicate. As to the method:
To assess cytotoxicity of optimized peptides in mammalian cells, an immortalized human keratinocyte cell line (HaCaT) was used. Cells were grown to 80% confluency in 24-well culture dishes and washed with PBS (Thermo Fisher). […] After incubation, the cells were washed with sterile PBS, followed by a covered incubation with 4 μM ethidium homodimer (Molecular Probes) for 30 min at room temperature. Fluorescence was measured using the Synergy H1 Microplate Reader set to 528 nm excitation, 617 nm emission, and a cutoff value of 590 nm. Saponin (0.1% wt/vol, Sigma) was added to each well followed by a covered incubation for 20 min at room temperature, followed by another measurement on the Synergy H1 Microplate Reader using the same settings to normalize readings to the number of cells per well and determine the percent cytotoxicity.

[9] abbreviates: E. coli BL21, running text b43, unit printed nm.

Like-named read-outs stand apart in the source and are kept apart here. Residues, ends and D or L forms follow the SMILES beside them. Bounds are passed on as bounds.

With `CC(C)O` [Isopropyl alcohol, isopropyl alcohol, reference compound], the PI positive cells result in data set [1] is on record as “large peak within the PI florescence range”.
Regarding `CC[C@H](C)[C@H](NC(=O)[C@H](Cc1c[nH]c2ccccc12)NC(=O)[C@H](C)NC(=O)[C@H](CCCNC(=N)N)NC(=O)[C@H](CCCCN)NC(=O)CNC(=O)[C@H](CCCCN)NC(=O)[C@H](CCC(=O)O)NC(=O)[C@H](CCC(N)=O)NC(=O)[C@@H](NC(=O)[C@H](CCCCN)NC(=O)[C@H](CCCCN)NC(=O)[C@H](CCCCN)NC(=O)[C@H](CC(C)C)NC(=O)[C@H](CCCNC(=N)N)NC(=O)[C@H](CCC(N)=O)NC(=O)[C@H](Cc1ccccc1)NC(=O)[C@@H](NC(=O)[C@@H](NC(=O)[C@H](CCC(=O)O)NC(=O)[C@H](CCCCN)NC(=O)CNC(=O)[C@H](C)N)[C@@H](C)O)[C@@H](C)CC)[C@@H](C)CC)C(=O)N[C@@H](C)C(=O)N[C@@H](Cc1c[nH]c2ccccc12)C(=O)O` [Syn-larvacin-27] (H-AGKETIFQRLKKKIQEKGKRAWIAW-OH; N-terminus and C-terminus assumed), the minimal bactericidal concentration (MBC) (as a rule, the lowest tested concentration that kills the bacteria rather than only halting them) is 0.5 µM in data set [2], 8 µM in data set [3], “below 15.6 nM” in data set [4] (setting [9]) and 64 µM in data set [6]. Further, the minimal inhibitory concentration (MIC) (as a rule, the lowest concentration that inhibits growth of the organism) in data set [2] (S. pyogenes M1) was 0.125 µM; in data set [2] (S. pyogenes M1, running text b43, unit printed nm), 0.125 µM; in data set [3] it was 8 µM; in data set [4] (BL21), 0.0156 µM; in data set [4] (BL21, 16 h), under 0.0156 µM; in data set [4] (setting [9]) it was “below 15.6 nM”. Further, the MIC in data set [6] came out at 32 µM. Also, the “GFP leakage / change in fluorescence” value in data set [5] is reported as “significant decrease in fluorescence”. For the same compound, the PI positive cells result in data set [1] was “higher cell counts of PI-stained cells in a dose-dependent manner”.
Consider `CC[C@H](C)[C@H](NC(=O)[C@H](CCCCN)NC(=O)[C@H](CCCCN)NC(=O)[C@H](CCCCN)NC(=O)[C@H](CC(C)C)NC(=O)[C@H](CCCNC(=N)N)NC(=O)[C@H](CCC(N)=O)NC(=O)[C@H](Cc1ccccc1)NC(=O)[C@@H](NC(=O)[C@@H](NC(=O)[C@H](CCC(=O)O)NC(=O)[C@H](CCCCN)NC(=O)CNC(=O)[C@H](C)N)[C@@H](C)O)[C@@H](C)CC)C(=O)N[C@@H](CCC(N)=O)C(=O)N[C@@H](CCC(=O)O)C(=O)N[C@@H](CCCCN)C(=O)N[C@@H](Cc1c[nH]c2ccccc12)C(=O)N[C@@H](CCCCN)C(=O)N[C@@H](CCCNC(=N)N)C(=O)N[C@@H](C)C(=O)N[C@H](C(=O)N[C@H](C(=O)N[C@@H](C)C(=O)N[C@@H](Cc1c[nH]c2ccccc12)C(=O)O)[C@@H](C)CC)[C@@H](C)O` [Syn-larvacin-43] (H-AGKETIFQRLKKKIQEKWKRATIAW-OH; N-terminus and C-terminus assumed), for which the MBC in data set [2] worked out at 4 µM; in data set [3] it was 4 µM; in data set [4] (BL21) it was 1 µM; in data set [6], 16 µM. Also, the MIC in data set [2] (M1, 16 h) turned out to be 4 µM; in data set [3], 4 µM; in data set [4] (BL21, 16 h), 1 µM; in data set [6], 16 µM. Besides, the “GFP leakage / change in fluorescence” value in data set [5] was “significant decrease in fluorescence”. For the same compound, in data set [1], the PI positive cells result is “higher cell counts of PI-stained cells in a dose-dependent manner”. The “Percent Hemolysis” value in data set [7] turned out to be 19.9%.
`CC[C@H](C)[C@H](NC(=O)[C@H](CCCNC(=N)N)NC(=O)CNC(=O)[C@@H](NC(=O)[C@H](CCCCN)NC(=O)[C@H](CCCNC(=N)N)NC(=O)[C@@H](NC(=O)[C@H](Cc1ccc(O)cc1)NC(=O)[C@H](CCCNC(=N)N)NC(=O)[C@H](CCCNC(=N)N)NC(=O)[C@H](CC(C)C)NC(=O)[C@H](CCC(=O)O)NC(=O)[C@H](CCCCN)NC(=O)[C@H](C)NC(=O)[C@@H](NC(=O)[C@H](CCCNC(=N)N)NC(=O)[C@H](CC(N)=O)NC(=O)[C@@H](NC(=O)CNC(=O)[C@H](C)N)[C@@H](C)O)[C@@H](C)CC)[C@@H](C)CC)C(C)C)C(=O)N[C@@H](C)C(=O)N[C@@H](CCCNC(=N)N)C(=O)N[C@@H](CCCCN)C(=O)N[C@@H](CCCCN)C(=O)N[C@@H](Cc1c[nH]c2ccccc12)C(=O)O` [Syn-sordellicin-88] (H-AGTNRIAKELRRYIRKVGRIARKKW-OH; N-terminus and C-terminus assumed): the MBC in data set [2] was 1 µM; in data set [3] it was 64 µM; in data set [4] (BL21), 1 µM; in data set [6] it was 16 µM. Also, the minimal inhibitory concentration (MIC) in data set [2] (M1, 16 h) was 1 µM; in data set [3], 64 µM; in data set [4] (BL21, 16 h), 1 µM; in data set [6], 16 µM. The “concentration at which peptide is cytotoxic” value in data set [8] is at least 64 µM. Also, the “Percent Hemolysis” value in data set [7] was found to be 11.7%.
